Laboratory results from PubChem BioAssay (NCI).
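In this assay, cells in 96-well plates receive the compound at five concentrations for 48 hours. Endpoints are linearly interpolated between the surrounding concentrations. At the GI50, growth is halved. TGI: total growth inhibition.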

Assays:
Experiment in all cases: DTP human tumour cell line panel, 48 h; in the data active = GI50 below about 0.43 µM; inactive = the rest
SF-539 CNS = test system: SF-539 CNS
NCI-H522 lung = test system: NCI-H522 lung
HL-60(TB) leukemia = test system: HL-60(TB) leukemia
HOP-92 NSCLC = test system: HOP-92 NSCLC
SK-MEL-28 melanoma = test system: SK-MEL-28 melanoma
K-562 leukemia = test system: K-562 leukemia
BT-549 breast = test system: BT-549 breast
COLO 205 colon = test system: COLO 205 colon
HOP-62 NSCLC = test system: HOP-62 NSCLC
MDA-MB-231 breast = test system: MDA-MB-231 breast
SNB-19 CNS = test system: SNB-19 CNS
OVCAR-8 ovarian = test system: OVCAR-8 ovarian
NCI-H23 lung = test system: NCI-H23 lung
NCI/ADR-RES ovarian = test system: NCI/ADR-RES ovarian
MDA-MB-435 = test system: MDA-MB-435
SR leukemia = test system: SR leukemia
ACHN renal = test system: ACHN renal
EKVX NSCLC = test system: EKVX NSCLC
OVCAR-4 ovarian = test system: OVCAR-4 ovarian
HS 578T breast = test system: HS 578T breast
RXF 393 renal = test system: RXF 393 renal
KM12 colon = test system: KM12 colon
SK-OV-3 ovarian = test system: SK-OV-3 ovarian
SK-MEL-5 melanoma = test system: SK-MEL-5 melanoma
PC-3 prostate = test system: PC-3 prostate
SK-MEL-2 melanoma = test system: SK-MEL-2 melanoma
SF-268 CNS = test system: SF-268 CNS
NCI-H460 lung = test system: NCI-H460 lung
UO-31 renal = test system: UO-31 renal
MOLT-4 leukemia = test system: MOLT-4 leukemia
OVCAR-5 ovarian = test system: OVCAR-5 ovarian
786-0 renal = test system: 786-0 renal
MCF7 breast = test system: MCF7 breast
IGROV1 ovarian = test system: IGROV1 ovarian
SF-295 CNS = test system: SF-295 CNS
A498 renal = test system: A498 renal
UACC-62 melanoma = test system: UACC-62 melanoma
NCI-H226 lung = test system: NCI-H226 lung
U251 CNS = test system: U251 CNS
HCT-116 colon = test system: HCT-116 colon
HT29 colon = test system: HT29 colon
SNB-75 CNS = test system: SNB-75 CNS
T-47D breast = test system: T-47D breast
SN12C renal = test system: SN12C renal
OVCAR-3 ovarian = test system: OVCAR-3 ovarian
M14 melanoma = test system: M14 melanoma
RPMI-8226 leukemia = test system: RPMI-8226 leukemia
TK-10 renal = test system: TK-10 renal
LOX IMVI melanoma = test system: LOX IMVI melanoma
DU-145 prostate = test system: DU-145 prostate
CCRF-CEM leukemia = test system: CCRF-CEM leukemia
MALME-3M melanoma = test system: MALME-3M melanoma
HCC-2998 colon = test system: HCC-2998 colon
SW-620 colon = test system: SW-620 colon
CAKI-1 renal = test system: CAKI-1 renal
HCT-15 colon = test system: HCT-15 colon
A549 NSCLC = test system: A549 NSCLC

CCN1C(=O)N(CC)C2C1NN=C1SC(c3ccccc3)=CC(=O)N12 (stereo not given)
> 56100 nM: TGI (SK-OV-3 ovarian)
> 36900 nM: TGI (NCI-H460 lung)
538 nM: TGI (RXF 393 renal)
> 85600 nM: TGI (KM12 colon)
1590 nM: TGI (OVCAR-3 ovarian)
> 28200 nM: TGI (HCC-2998 colon)
> 24900 nM: TGI (SF-295 CNS)
> 72000 nM: TGI (NCI-H226 lung)
2200 nM: TGI (COLO 205 colon)
> 20400 nM: TGI (OVCAR-8 ovarian)
41800 nM: TGI (SK-MEL-5 melanoma)
> 74900 nM: TGI (HCT-15 colon)
25100 nM: TGI (BT-549 breast)
3030 nM: TGI (SF-539 CNS)
772 nM: TGI (NCI-H522 lung)
> 54300 nM: TGI (RPMI-8226 leukemia)
active: GI50 (SF-539 CNS) 375 nM | GI50 (NCI-H522 lung) 228 nM | GI50 (HL-60(TB) leukemia) 308 nM | GI50 (K-562 leukemia) 258 nM | GI50 (BT-549 breast) 330 nM | GI50 (NCI/ADR-RES ovarian) 385 nM | GI50 (MDA-MB-435) 42.9 nM | GI50 (SR leukemia) 140 nM | GI50 (RXF 393 renal) 198 nM | GI50 (KM12 colon) 344 nM | GI50 (NCI-H460 lung) 394 nM | GI50 (MCF7 breast) 277 nM | GI50 (SF-295 CNS) 389 nM | GI50 (UACC-62 melanoma) 343 nM | GI50 (HCT-116 colon) 388 nM | GI50 (HT29 colon) 338 nM | GI50 (SNB-75 CNS) 210 nM | GI50 (T-47D breast) 286 nM | GI50 (OVCAR-3 ovarian) 320 nM | GI50 (M14 melanoma) 344 nM | GI50 (SW-620 colon) 349 nM | GI50 (CAKI-1 renal) 357 nM | GI50 (HCT-15 colon) 313 nM
176 nM: TGI (MDA-MB-435)
> 100000 nM: TGI (HOP-92 NSCLC) | TGI (SK-MEL-28 melanoma) | TGI (K-562 leukemia) | TGI (HOP-62 NSCLC) | TGI (MDA-MB-231 breast) | TGI (SNB-19 CNS) | TGI (NCI-H23 lung) | TGI (NCI/ADR-RES ovarian) | TGI (SR leukemia) | TGI (ACHN renal) | TGI (EKVX NSCLC) | TGI (OVCAR-4 ovarian) | TGI (HS 578T breast) | TGI (PC-3 prostate) | TGI (SK-MEL-2 melanoma) | TGI (SF-268 CNS) | TGI (UO-31 renal) | TGI (MOLT-4 leukemia) | TGI (OVCAR-5 ovarian) | TGI (786-0 renal) | TGI (MCF7 breast) | TGI (IGROV1 ovarian) | TGI (A498 renal) | TGI (UACC-62 melanoma) | TGI (U251 CNS) | TGI (HCT-116 colon) | TGI (T-47D breast) | TGI (SN12C renal) | TGI (M14 melanoma) | TGI (TK-10 renal) | TGI (LOX IMVI melanoma) | TGI (DU-145 prostate) | TGI (CCRF-CEM leukemia) | TGI (MALME-3M melanoma) | TGI (SW-620 colon) | TGI (CAKI-1 renal) | TGI (A549 NSCLC)
inactive: GI50 (HOP-92 NSCLC) > 36300 nM | GI50 (SK-MEL-28 melanoma) 872 nM | GI50 (COLO 205 colon) 429 nM | GI50 (HOP-62 NSCLC) 532 nM | GI50 (MDA-MB-231 breast) 2450 nM | GI50 (SNB-19 CNS) 730 nM | GI50 (OVCAR-8 ovarian) 1470 nM | GI50 (NCI-H23 lung) 1220 nM | GI50 (ACHN renal) 660 nM | GI50 (OVCAR-4 ovarian) 15700 nM | GI50 (HS 578T breast) 489 nM | GI50 (SK-OV-3 ovarian) 545 nM | GI50 (SK-MEL-5 melanoma) 493 nM | GI50 (PC-3 prostate) 515 nM | GI50 (SK-MEL-2 melanoma) 481 nM | GI50 (SF-268 CNS) 3050 nM | GI50 (UO-31 renal) 605 nM | GI50 (MOLT-4 leukemia) 809 nM | GI50 (OVCAR-5 ovarian) 921 nM | GI50 (786-0 renal) 472 nM | GI50 (IGROV1 ovarian) 1090 nM | GI50 (A498 renal) > 100000 nM | GI50 (NCI-H226 lung) 561 nM | GI50 (U251 CNS) 546 nM | GI50 (SN12C renal) 596 nM | GI50 (RPMI-8226 leukemia) 580 nM | GI50 (TK-10 renal) 53500 nM | GI50 (LOX IMVI melanoma) 562 nM | GI50 (DU-145 prostate) 717 nM | GI50 (CCRF-CEM leukemia) 428 nM | GI50 (MALME-3M melanoma) 492 nM | GI50 (HCC-2998 colon) 1540 nM | GI50 (A549 NSCLC) 1020 nM
